# How the values were obtained:
# [1] = tested on: barnyardgrass; assay: Test A preemergence; type: in vivo, Echinochloa crus-galli; details: preemergence
# Procedure, shortened: (§1)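 Visual injury rating, 0–100 (0 no effect, 100 complete control), vs untreated controls ~10 days after treatment in greenhouse. Pre: directed soil spray on seeded loam/sand. Post: 2–10 cm plants, 1–2 leaf stage. Formulation: non-phytotoxic solvent mix + surfactant.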
# [2] = tested on: crabgrass, large; assay: Test A preemergence; type: in vivo, Digitaria sanguinalis; details: preemergence
# Procedure, shortened: as §1
# [3] = tested on: foxtail, giant; assay: Test A preemergence; type: in vivo, Setaria faberii; details: preemergence
# Procedure, shortened: as §1
# [4] = tested on: morningglory; assay: Test A preemergence; type: in vivo, Ipomoea spp.; details: preemergence
# Procedure, shortened: as §1
# [5] = tested on: pigweed; assay: Test A preemergence; type: in vivo, Amaranthus retroflexus; details: preemergence
# Procedure, shortened: as §1
# [6] = tested on: velvetleaf; assay: Test A preemergence; type: in vivo, Abutilon theophrasti; details: preemergence
# Procedure, shortened: as §1
# [7] = tested on: wheat; assay: Test A preemergence; type: in vivo, Triticum aestivum; details: preemergence
# Procedure, shortened: as §1
# [8] = tested on: corn; assay: Test A preemergence; type: in vivo, Zea mays; details: preemergence
# Procedure, shortened: as §1
# [9] = tested on: barnyardgrass; assay: Test A postemergence; type: in vivo, Echinochloa crus-galli
# Procedure, shortened: as §1
# [10] = tested on: crabgrass, large; assay: Test A postemergence; type: in vivo, Digitaria sanguinalis
# Procedure, shortened: as §1
# [11] = tested on: foxtail, giant; assay: Test A postemergence; type: in vivo, Setaria faberii
# Procedure, shortened: as §1
# [12] = tested on: morningglory; assay: Test A postemergence; type: in vivo, Ipomoea spp.
# Procedure, shortened: as §1
# [13] = tested on: pigweed; assay: Test A postemergence; type: in vivo, Amaranthus retroflexus
# Procedure, shortened: as §1
# [14] = tested on: velvetleaf; assay: Test A postemergence; type: in vivo, Abutilon theophrasti
# Procedure, shortened: as §1
# [15] = tested on: wheat; assay: Test A postemergence; type: in vivo, Triticum aestivum
# Procedure, shortened: as §1
# [16] = tested on: corn; assay: Test A postemergence; type: in vivo, Zea mays
# Procedure, shortened: as §1
# [17] = tested on: rice; assay: Test B flood; type: in vivo, Oryza sativa; details: 250 g ai/ha, visual rating on 0 to 100 scale (0 no effect, 100 complete control), 13 to 15 days
# Procedure, shortened: (§2)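 2-leaf plants; pots flooded 3 cm over soil; compound added to paddy water, depth kept constant. Greenhouse 13–15 d. Visual rating vs controls, 0–100 scale (100 = complete control); dash = no result.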
# [18] = tested on: sedge, umbrella; assay: Test B flood; type: in vivo, Cyperus difformis; details: 250 g ai/ha, visual rating on 0 to 100 scale (0 no effect, 100 complete control), 13 to 15 days
# Procedure, shortened: as §2
# [19] = tested on: ducksalad; assay: Test B flood; type: in vivo, Heteranthera limosa; details: 250 g ai/ha, visual rating on 0 to 100 scale (0 no effect, 100 complete control), 13 to 15 days
# Procedure, shortened: as §2
# [20] = tested on: barnyardgrass; assay: Test B flood; type: in vivo, Echinochloa crus-galli; details: 250 g ai/ha, visual rating on 0 to 100 scale (0 no effect, 100 complete control), 13 to 15 days
# Procedure, shortened: as §2
# [21] = tested on: rice; assay: Test C flooded paddy test; type: in vivo, Oryza sativa; details: Flood
# Procedure, shortened: (§3)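 Pots were flooded to 3 cm above the soil surface at treatment, compound applied directly to the paddy water, and that depth held throughout. Plants were kept in a greenhouse for 13 to 15 days, then visually rated against untreated controls.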
# [22] = tested on: sedge, umbrella; assay: Test C flooded paddy test; type: in vivo, Cyperus difformis; details: Flood
# Procedure, shortened: as §3
# [23] = tested on: ducksalad; assay: Test C flooded paddy test; type: in vivo, Heteranthera limosa; details: Flood
# Procedure, shortened: as §3
# [24] = tested on: barnyardgrass; assay: Test C flooded paddy test; type: in vivo, Echinochloa crus-galli; details: Flood
# Procedure, shortened: as §3
# [25] = 500 g ai/ha, visual injury after approx. 10 days, 0 to 100 scale (0 no effect, 100 complete control)
# [26] = 125 g ai/ha, visual injury approx. 10 days after treatment
# [27] = Postemergence, 500 g ai/ha, 0 to 100 scale (0 no effect, 100 complete control)
# [28] = postemergence, 125 g ai/ha, about 10 days, visual rating on 0 to 100 scale (0 no effect, 100 complete control)
# [29] = 31 g ai/ha, scale 0 to 100 (0 no effect, 100 complete control)
# [30] = 62 g ai/ha, scale 0 to 100 (0 no effect, 100 complete control)
smiles,measurement,setting,value
CCc1cc(C(=O)NC(C)C)nn1Cc1ccnc(OCC(F)(F)F)c1 [Compound 149],Barnyardgrass plant response rating,"[1]; 125 g ai/ha, visual injury, 0 to 100 scale, approx. 10 days",10
same,Barnyardgrass plant response rating,[1]; [25],60
same,"Crabgrass, Large plant response rating (0 to 100 scale)",[2]; [26],100
same,"Crabgrass, Large plant response rating",[2]; [25],100
same,"Foxtail, Giant plant response rating (0 to 100 scale)",[3]; [26],70
same,"Foxtail, Giant plant response rating",[3]; [25],100
same,Morningglory plant response rating (0 to 100 scale),[4]; [26],10
same,Morningglory plant response rating,[4]; [25],100
same,Pigweed plant response rating (0 to 100 scale),[5]; [26],80
same,Pigweed plant response rating,[5]; [25],100
same,Velvetleaf plant response rating (0 to 100 scale),[6]; [26],20
same,Velvetleaf plant response rating,[6]; [25],90
same,Wheat plant response rating (0 to 100 scale),[7]; [26],0
same,Wheat plant response rating,[7]; [25],50
same,Corn plant response rating (0 to 100 scale),[8]; [26],0
same,Corn plant response rating,[8]; [25],30
same,Barnyardgrass plant response rating,[9]; [27],80
same,Barnyardgrass plant response rating,[9]; [28],30
same,"Crabgrass, Large plant response rating",[10]; [27],90
same,"Crabgrass, Large plant response rating",[10]; [28],40
same,"Foxtail, Giant plant response rating",[11]; [27],80
same,"Foxtail, Giant plant response rating",[11]; [28],70
same,Morningglory plant response rating,[12]; [27],100
same,Morningglory plant response rating,[12]; [28],60
same,Pigweed plant response rating,[13]; [27],100
same,Pigweed plant response rating,[13]; [28],90
same,Velvetleaf plant response rating,[14]; [27],90
same,Velvetleaf plant response rating,[14]; [28],30
same,Wheat plant response rating,[15]; [27],60
same,Wheat plant response rating,[15]; [28],20
same,Corn plant response rating,[16]; [27],80
same,Corn plant response rating,[16]; [28],40
same,"Plant response rating, Rice",[17],10
same,"Plant response rating, Sedge, Umbrella",[18],95
same,"Plant response rating, Ducksalad",[19],95
same,"Plant response rating, Barnyardgrass",[20],30
same,"Plant response rating, Rice",[21]; [29],0
same,"Plant response rating, Rice",[21]; [30],0
same,"Plant response rating, Rice","[21]; 125 g ai/ha, scale 0 to 100",0
same,"Plant response rating, Sedge, Umbrella",[22]; [29],60
same,"Plant response rating, Sedge, Umbrella",[22]; [30],70
same,"Plant response rating, Sedge, Umbrella","[22]; 125 g ai/ha, scale 0 to 100",80
same,"Plant response rating, Ducksalad",[23]; [29],0
same,"Plant response rating, Ducksalad",[23]; [30],55
same,"Plant response rating, Ducksalad","[23]; 125 g ai/ha, scale 0 to 100",70
same,"Plant response rating, Barnyardgrass",[24]; [29],0
same,"Plant response rating, Barnyardgrass",[24]; [30],0
same,"Plant response rating, Barnyardgrass","[24]; 125 g ai/ha, scale 0 to 100",0

# From US20150105252A1, “SUBSTITUTED PYRAZOLES AS HERBICIDES” (E I DU PONT DE NEMOURS AND COMPANY, priority 2013, published 2015)
